Measurements as given in ChEMBL document CHEMBL3632469, “Discovery of dihydroquinazolinone derivatives as potent, selective, and CNS-penetrant M(1) and M(4) muscarinic acetylcholine receptors agonists” (Bioorg Med Chem Lett, 2015).

Tests used:
[1] = target: Muscarinic acetylcholine receptor M3 (Homo sapiens) (UniProt P20309); assay: Agonist activity at human muscarinic M3 acetylcholine receptor expressed in CHO cells assessed as calcium mobilization at 0.3 uM by FLIPR assay; assay type: functional, cell-based
[2] = target: 5-hydroxytryptamine receptor 2C (Homo sapiens) (UniProt P28335); assay: Antagonist activity at 5-HT2C receptor (unknown origin) expressed in CHO cells assessed as calcium mobilization at 3 uM; assay type: functional, cell-based
[3] = target: 5-hydroxytryptamine receptor 6 (Homo sapiens) (UniProt P50406); assay: Antagonist activity at 5-HT6 receptor (unknown origin) expressed in CHO cells assessed as calcium mobilization at 3 uM; assay type: functional, cell-based
[4] = target: Cysteinyl leukotriene receptor 2 (Homo sapiens) (UniProt Q9NS75); assay: Agonist activity at CysLT2 receptor (unknown origin) expressed in CHO cells assessed as calcium mobilization at 3 uM; assay type: functional, cell-based
[5] = Ratio of drug level in brain to blood in rat; assay type: ADME, tissue-based
[6] = target: Histamine H3 receptor (Homo sapiens) (UniProt Q9Y5N1); assay: Agonist activity at histamine H3 receptor (unknown origin) expressed in CHO cells assessed as calcium mobilization at 3 uM; assay type: functional, cell-based
[7] = target: Neuropeptide Y receptor type 2 (Homo sapiens) (UniProt P49146); assay: Agonist activity at NPY2 receptor (unknown origin) expressed in CHO cells assessed as calcium mobilization at 3 uM; assay type: functional, cell-based
[8] = target: Alpha-2A adrenergic receptor (Homo sapiens) (UniProt P08913); assay: Antagonist activity at adrenergic a2a receptor (unknown origin) expressed in CHO cells assessed as calcium mobilization at 3 uM; assay type: functional, cell-based
[9] = target: Histamine H1 receptor (Homo sapiens) (UniProt P35367); assay: Binding affinity to histamine H1 receptor (unknown origin) at 3 uM by radioligand-binding assay
[10] = target: Alpha-2B adrenergic receptor (Homo sapiens) (UniProt P18089); assay: Agonist activity at adrenergic a2B receptor (unknown origin) expressed in CHO cells assessed as calcium mobilization at 3 uM; assay type: functional, cell-based
[11] = target: Histamine H2 receptor (Homo sapiens) (UniProt P25021); assay: Agonist activity at histamine H2 receptor (unknown origin) expressed in CHO cells assessed as calcium mobilization at 3 uM; assay type: functional, cell-based
[12] = target: D(2) dopamine receptor (Homo sapiens) (UniProt P14416); assay: Antagonist activity at dopamine D2L receptor (unknown origin) expressed in CHO cells assessed as calcium mobilization at 3 uM; assay type: functional, cell-based
CHO [13] = assay: Antagonist activity at GaBaB receptor (unknown origin) expressed in CHO cells assessed as calcium mobilization at 3 uM; assay type: cell-based; conditions: Homo sapiens
[14] = target: T1, Muscarinic acetylcholine receptor M2 (Homo sapiens) (UniProt P08172); assay: Agonist activity at human muscarinic M2 acetylcholine receptor expressed in CHO cells co-expressing Galpha16 assessed as calcium mobilization at 0.3 uM by FLIPR assay; assay type: functional, cell-based
T1 sequence (whole entry): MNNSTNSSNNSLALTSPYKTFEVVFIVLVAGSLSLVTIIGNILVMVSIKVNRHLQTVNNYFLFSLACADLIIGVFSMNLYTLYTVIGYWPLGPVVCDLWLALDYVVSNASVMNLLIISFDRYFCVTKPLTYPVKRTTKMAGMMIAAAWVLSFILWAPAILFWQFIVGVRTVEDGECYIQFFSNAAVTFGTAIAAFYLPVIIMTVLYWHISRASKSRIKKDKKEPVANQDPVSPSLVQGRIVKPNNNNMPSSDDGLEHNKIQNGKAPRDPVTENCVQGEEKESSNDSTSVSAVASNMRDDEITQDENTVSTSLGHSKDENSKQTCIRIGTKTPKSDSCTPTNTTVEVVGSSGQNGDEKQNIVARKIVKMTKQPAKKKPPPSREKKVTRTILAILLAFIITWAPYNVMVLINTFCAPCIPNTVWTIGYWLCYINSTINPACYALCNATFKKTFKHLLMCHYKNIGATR

[15] = target: Adenosine receptor A2a (Homo sapiens) (UniProt P29274); assay: Antagonist activity at adenosine a2a receptor (unknown origin) expressed in CHO cells assessed as calcium mobilization at 3 uM; assay type: functional, cell-based
[16] = target: Adrenergic receptor alpha-1 (Homo sapiens) (UniProt P35348+P25100+P35368); assay: Agonist activity at adrenergic a1 receptor (unknown origin) expressed in CHO cells assessed as calcium mobilization at 3 uM; assay type: functional, cell-based
Cytochrome P450 2C19 = Cytochrome P450 2C19 (Homo sapiens, UniProt P33261); assay: Inhibition of CYP2C19 (unknown origin); assay type: ADME
CHO [17] = assay: Agonist activity at GaBaB receptor (unknown origin) expressed in CHO cells assessed as calcium mobilization at 3 uM; assay type: cell-based; conditions: Homo sapiens
[18] = target: Delta-type opioid receptor (Homo sapiens) (UniProt P41143); assay: Agonist activity at opiate delta1 receptor (unknown origin) expressed in CHO cells assessed as calcium mobilization at 3 uM; assay type: functional, cell-based
[19] = target: D(4) dopamine receptor (Homo sapiens) (UniProt P21917); assay: Antagonist activity at dopamine D4 receptor (unknown origin) expressed in CHO cells assessed as calcium mobilization at 3 uM; assay type: functional, cell-based
[20] = target: Kappa-type opioid receptor (Homo sapiens) (UniProt P41145); assay: Agonist activity at ppiate kappa receptor (unknown origin) expressed in CHO cells assessed as calcium mobilization at 3 uM; assay type: functional, cell-based
[21] = target: D(2) dopamine receptor (Homo sapiens) (UniProt P14416); assay: Agonist activity at dopamine D2S receptor (unknown origin) expressed in CHO cells assessed as calcium mobilization at 3 uM; assay type: functional, cell-based
[22] = target: 5-hydroxytryptamine receptor 4 (Homo sapiens) (UniProt Q13639); assay: Antagonist activity at 5-HT4B receptor (unknown origin) expressed in CHO cells assessed as calcium mobilization at 3 uM; assay type: functional, cell-based
[23] = target: 5-hydroxytryptamine receptor 1F (Homo sapiens) (UniProt P30939); assay: Agonist activity at 5-HT1F receptor (unknown origin) expressed in CHO cells assessed as calcium mobilization at 3 uM; assay type: functional, cell-based
[24] = target: Nuclear receptor subfamily 1 group I member 2 (Homo sapiens, UniProt O75469); assay: Induction of human PXR; assay type: ADME
Cytochrome P450 1A2 = Cytochrome P450 1A2 (Homo sapiens, UniProt P05177); assay: Inhibition of CYP1A2 (unknown origin); assay type: ADME
[25] = target: Histamine H1 receptor (Homo sapiens) (UniProt P35367); assay: Agonist activity at histamine H1 receptor (unknown origin) expressed in CHO cells assessed as calcium mobilization at 3 uM; assay type: functional, cell-based
[26] = target: Cysteinyl leukotriene receptor 2 (Homo sapiens) (UniProt Q9NS75); assay: Antagonist activity at CysLT2 receptor (unknown origin) expressed in CHO cells assessed as calcium mobilization at 3 uM; assay type: functional, cell-based
[27] = target: Type-1 angiotensin II receptor (Homo sapiens) (UniProt P30556); assay: Agonist activity at angiotensin 2 type 1 receptor (unknown origin) expressed in CHO cells assessed as calcium mobilization at 3 uM; assay type: functional, cell-based
[28] = target: Mu-type opioid receptor (Homo sapiens) (UniProt P35372); assay: Agonist activity at ppiate mu receptor (unknown origin) expressed in CHO cells assessed as calcium mobilization at 3 uM; assay type: functional, cell-based

Histamine H1 receptor (Homo sapiens), sequence (P35367 whole entry): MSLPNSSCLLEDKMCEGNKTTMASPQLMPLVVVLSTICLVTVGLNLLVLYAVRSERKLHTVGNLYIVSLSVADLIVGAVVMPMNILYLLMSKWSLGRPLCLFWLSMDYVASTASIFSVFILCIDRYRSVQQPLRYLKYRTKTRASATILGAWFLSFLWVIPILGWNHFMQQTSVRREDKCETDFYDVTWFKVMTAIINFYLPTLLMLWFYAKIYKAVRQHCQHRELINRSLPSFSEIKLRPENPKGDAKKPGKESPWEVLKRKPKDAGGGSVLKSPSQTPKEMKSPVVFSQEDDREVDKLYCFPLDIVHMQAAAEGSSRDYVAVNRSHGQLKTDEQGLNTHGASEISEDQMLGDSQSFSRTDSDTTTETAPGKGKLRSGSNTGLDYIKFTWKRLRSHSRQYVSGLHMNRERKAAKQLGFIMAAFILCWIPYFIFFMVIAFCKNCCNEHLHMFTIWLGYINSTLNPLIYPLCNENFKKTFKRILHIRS
D(2) dopamine receptor (Homo sapiens), sequence (P14416 whole entry): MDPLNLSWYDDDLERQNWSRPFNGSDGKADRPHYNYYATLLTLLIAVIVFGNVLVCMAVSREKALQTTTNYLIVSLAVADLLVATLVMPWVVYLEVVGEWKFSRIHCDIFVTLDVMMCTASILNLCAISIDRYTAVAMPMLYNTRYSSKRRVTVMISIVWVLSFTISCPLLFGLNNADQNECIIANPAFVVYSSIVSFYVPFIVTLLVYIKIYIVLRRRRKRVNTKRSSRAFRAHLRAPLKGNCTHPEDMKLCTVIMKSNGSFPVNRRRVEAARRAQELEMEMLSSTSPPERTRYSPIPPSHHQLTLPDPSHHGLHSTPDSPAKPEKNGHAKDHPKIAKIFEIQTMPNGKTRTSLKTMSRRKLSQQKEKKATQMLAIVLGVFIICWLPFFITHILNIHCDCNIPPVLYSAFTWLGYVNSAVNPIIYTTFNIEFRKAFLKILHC
Cysteinyl leukotriene receptor 2 (Homo sapiens), sequence (Q9NS75 whole entry): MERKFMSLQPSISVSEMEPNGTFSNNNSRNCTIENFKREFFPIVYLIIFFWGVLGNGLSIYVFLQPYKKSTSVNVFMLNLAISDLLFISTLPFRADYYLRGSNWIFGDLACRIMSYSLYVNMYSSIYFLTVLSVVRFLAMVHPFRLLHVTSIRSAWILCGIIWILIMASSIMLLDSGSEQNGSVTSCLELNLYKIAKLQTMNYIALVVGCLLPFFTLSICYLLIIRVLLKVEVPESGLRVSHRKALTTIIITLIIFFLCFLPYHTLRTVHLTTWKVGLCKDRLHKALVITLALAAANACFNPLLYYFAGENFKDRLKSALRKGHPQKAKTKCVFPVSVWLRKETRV
Alpha-2B adrenergic receptor (Homo sapiens), sequence (P18089 whole entry): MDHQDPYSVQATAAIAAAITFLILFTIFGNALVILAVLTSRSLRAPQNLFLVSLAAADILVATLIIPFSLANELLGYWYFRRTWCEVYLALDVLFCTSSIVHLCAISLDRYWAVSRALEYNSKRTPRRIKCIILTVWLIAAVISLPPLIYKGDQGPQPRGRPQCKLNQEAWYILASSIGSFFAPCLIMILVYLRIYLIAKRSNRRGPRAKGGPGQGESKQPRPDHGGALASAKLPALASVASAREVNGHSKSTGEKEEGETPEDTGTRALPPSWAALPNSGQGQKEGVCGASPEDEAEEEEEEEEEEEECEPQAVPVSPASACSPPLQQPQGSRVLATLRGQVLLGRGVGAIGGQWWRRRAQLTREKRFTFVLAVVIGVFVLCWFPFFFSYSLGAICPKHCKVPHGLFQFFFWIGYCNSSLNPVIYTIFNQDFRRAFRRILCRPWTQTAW
Muscarinic acetylcholine receptor M3 (Homo sapiens), sequence (P20309 whole entry, looked up): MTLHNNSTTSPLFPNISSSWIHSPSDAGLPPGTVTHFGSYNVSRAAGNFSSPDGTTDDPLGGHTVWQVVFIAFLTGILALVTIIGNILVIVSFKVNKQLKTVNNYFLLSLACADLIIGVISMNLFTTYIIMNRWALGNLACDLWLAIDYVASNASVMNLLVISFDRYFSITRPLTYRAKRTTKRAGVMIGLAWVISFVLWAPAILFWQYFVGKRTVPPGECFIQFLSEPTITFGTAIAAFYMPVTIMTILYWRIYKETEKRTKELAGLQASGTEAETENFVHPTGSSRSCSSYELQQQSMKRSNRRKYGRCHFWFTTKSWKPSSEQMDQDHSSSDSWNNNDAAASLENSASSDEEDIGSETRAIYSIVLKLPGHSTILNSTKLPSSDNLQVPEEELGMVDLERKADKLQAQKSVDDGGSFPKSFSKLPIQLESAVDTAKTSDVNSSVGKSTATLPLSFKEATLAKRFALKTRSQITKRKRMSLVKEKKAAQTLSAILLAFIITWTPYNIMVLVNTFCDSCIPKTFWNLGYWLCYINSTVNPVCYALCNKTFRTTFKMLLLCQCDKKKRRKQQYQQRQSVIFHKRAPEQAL
Delta-type opioid receptor (Homo sapiens), sequence (P41143 whole entry): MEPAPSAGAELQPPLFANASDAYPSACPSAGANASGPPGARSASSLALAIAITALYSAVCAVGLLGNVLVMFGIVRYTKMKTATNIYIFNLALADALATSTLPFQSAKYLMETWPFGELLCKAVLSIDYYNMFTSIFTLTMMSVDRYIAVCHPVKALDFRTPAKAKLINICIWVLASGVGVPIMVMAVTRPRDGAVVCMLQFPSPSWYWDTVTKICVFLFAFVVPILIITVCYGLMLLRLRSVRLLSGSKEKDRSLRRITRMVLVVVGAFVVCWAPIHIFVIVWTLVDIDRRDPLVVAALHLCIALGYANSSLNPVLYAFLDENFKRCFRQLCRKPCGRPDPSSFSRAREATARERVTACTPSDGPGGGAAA
5-hydroxytryptamine receptor 4 (Homo sapiens), sequence (Q13639 whole entry): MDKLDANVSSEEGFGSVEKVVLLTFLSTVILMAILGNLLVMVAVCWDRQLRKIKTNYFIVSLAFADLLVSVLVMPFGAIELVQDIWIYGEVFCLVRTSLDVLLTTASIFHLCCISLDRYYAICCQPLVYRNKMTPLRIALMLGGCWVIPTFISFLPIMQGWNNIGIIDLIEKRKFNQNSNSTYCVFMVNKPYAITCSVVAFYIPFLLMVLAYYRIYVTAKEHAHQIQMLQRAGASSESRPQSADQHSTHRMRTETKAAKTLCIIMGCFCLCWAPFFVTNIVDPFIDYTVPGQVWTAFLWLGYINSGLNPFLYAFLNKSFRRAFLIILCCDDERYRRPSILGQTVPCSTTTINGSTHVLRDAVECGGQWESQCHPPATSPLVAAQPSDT
Nuclear receptor subfamily 1 group I member 2, sequence (O75469 whole entry): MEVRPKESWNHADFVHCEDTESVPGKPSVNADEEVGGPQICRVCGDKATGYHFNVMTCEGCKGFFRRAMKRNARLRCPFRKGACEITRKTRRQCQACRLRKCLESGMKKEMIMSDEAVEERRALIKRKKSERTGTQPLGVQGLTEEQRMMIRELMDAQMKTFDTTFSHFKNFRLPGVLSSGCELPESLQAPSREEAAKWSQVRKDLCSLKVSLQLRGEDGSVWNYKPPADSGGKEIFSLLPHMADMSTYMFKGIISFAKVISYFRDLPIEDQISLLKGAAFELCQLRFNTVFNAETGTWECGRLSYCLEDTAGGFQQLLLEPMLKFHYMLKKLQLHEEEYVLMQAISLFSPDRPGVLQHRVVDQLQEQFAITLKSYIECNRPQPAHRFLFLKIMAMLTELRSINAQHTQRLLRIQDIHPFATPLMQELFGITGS
Histamine H2 receptor (Homo sapiens), sequence (P25021 whole entry): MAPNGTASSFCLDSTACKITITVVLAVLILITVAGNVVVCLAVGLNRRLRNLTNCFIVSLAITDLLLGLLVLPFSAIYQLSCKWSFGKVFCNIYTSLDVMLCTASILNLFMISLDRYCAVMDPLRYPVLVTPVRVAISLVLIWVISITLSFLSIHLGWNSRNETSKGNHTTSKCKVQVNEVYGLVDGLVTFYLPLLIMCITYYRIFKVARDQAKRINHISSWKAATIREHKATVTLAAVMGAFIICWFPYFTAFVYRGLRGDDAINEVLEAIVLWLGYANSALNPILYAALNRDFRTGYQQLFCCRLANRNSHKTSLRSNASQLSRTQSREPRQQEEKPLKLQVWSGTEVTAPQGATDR
5-hydroxytryptamine receptor 1F (Homo sapiens), sequence (P30939 whole entry): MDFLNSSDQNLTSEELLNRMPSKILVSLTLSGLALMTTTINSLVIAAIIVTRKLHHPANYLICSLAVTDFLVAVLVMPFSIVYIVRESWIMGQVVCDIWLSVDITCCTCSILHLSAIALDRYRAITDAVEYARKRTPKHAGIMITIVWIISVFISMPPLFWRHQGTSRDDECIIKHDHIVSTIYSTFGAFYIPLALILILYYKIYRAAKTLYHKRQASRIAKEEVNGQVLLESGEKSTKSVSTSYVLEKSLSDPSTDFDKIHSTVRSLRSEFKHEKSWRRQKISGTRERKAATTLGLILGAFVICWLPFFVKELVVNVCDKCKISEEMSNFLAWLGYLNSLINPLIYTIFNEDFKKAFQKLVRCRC
Histamine H3 receptor (Homo sapiens), sequence (Q9Y5N1 whole entry): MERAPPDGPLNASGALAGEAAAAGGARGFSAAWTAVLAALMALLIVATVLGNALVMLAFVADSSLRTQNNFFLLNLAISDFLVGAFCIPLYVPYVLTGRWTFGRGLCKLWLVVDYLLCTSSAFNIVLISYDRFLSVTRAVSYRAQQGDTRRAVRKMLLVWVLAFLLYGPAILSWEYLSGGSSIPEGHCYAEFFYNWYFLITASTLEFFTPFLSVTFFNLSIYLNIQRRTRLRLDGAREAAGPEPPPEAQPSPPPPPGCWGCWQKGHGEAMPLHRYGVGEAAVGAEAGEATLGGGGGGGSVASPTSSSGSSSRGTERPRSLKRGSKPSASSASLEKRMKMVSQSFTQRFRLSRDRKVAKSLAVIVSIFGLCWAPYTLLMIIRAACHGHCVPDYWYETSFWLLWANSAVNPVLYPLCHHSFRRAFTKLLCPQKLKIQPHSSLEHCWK

What does the source list for `CCOC(=O)N1[C@@H]2CC[C@H]1C[C@H](CN1CC[C@@H](N3Cc4ccccc4NC3=O)C1)C2`?
Activity [1]: 2%; inhibition [2]: -5.25%; inhibition [3]: 1.97%; Activity [4]: 0.03%; Kp [5]: 2.42; Activity [6]: -0.38%; Activity [7]: 1.73%; inhibition [8]: 9.18%; inhibition [9]: 6%; Activity [10]: -0.18%; Activity [11]: -0.83%; inhibition [12]: 13.2%; inhibition (CHO [13]): 4.47%; Activity [14]: 1%; inhibition [15]: 2.25%; Activity [16]: -0.04%; IC50 (Cytochrome P450 2C19): > 2 µM; Activity (CHO [17]): 0.7%; Activity [18]: -0.04%; inhibition [19]: 11.6%; Activity [20]: -0.33%; Activity [21]: -0.5%; inhibition [22]: -1.57%; Activity [23]: -0.53%; Activity [24]: Not Active; IC50 (Cytochrome P450 1A2): > 2 µM; Activity [25]: 0.17%; inhibition [26]: 18.8%; Activity [27]: -0.18%; Activity [28]: 1%
